Data reported in patent US20120165334A1, “Indole/Benzimidazole Compounds as mTOR Kinase Inhibitors” (AMGEN INC., priority 2009, published 2012).
Like-named read-outs stand apart in the source and are kept apart here.

Columns and labels:
PI3Ka = PI3Ka (Homo sapiens, UniProt P42336); assay: PI3Ka Alpha assay; assay type: biochemical; settings: the values are: IC50
[1] = tested on: phosphorylation of Akt at Serine 473; assay: pAkt AlphaScreen in U87 MG cells; assay type: cell-based; settings: read-out: AA11809+++pAKT_U87_IC50_IP
Description: The pAkt AlphaScreen assay determines whether there is phosphorylation of Akt at Serine 473 by recruitment of a phosphospecific antibody. This assay was performed using U87 MG cells. […] The cells were maintained weekly using 0.05% Trypsin (Gibco, 25300-054) and replated in 150 mm TC—Treated Culture Dishes (Corning, 430599).
The first day of the assay, the adherent cells were trypsinized, media was added to the loose cells and cells were mixed to a homogenous mixture. 0.5 ml of the homogenous mixture was counted on the Beckman Coulter® Vi-CELL™ XR. 50 frames of cells were counted and the number of viable cells was determined. The cells were then diluted to 0.25 million cells per ml, and centrifuged at 200 rcf for 5 minutes. The media was removed and the cells were reconstituted in fresh media for plating. The cells were plated at 20 μl per well on the PerkinElmer® FlexDrop PLUS in Low Volume 384 Well White Tissue Culture Plates (Corning, 3826) with a final cell density of 5K cells per well. The plates were incubated overnight at 37° Celsius, 5% CO2.
On the second day, the compound plates were prepared, the cells were treated with compound and the pAkt reaction mix was added to the cell lysate. 384 well compound plates were prepared by Amgen's Sample Bank containing […] of compound per well starting at 5 mM and diluted 1:2 across the row, resulting in a 22 well serial dilution. 39 μl of growth media was added to the compound plate in rows 1-22 using the PerkinElmer® FlexDrop PLUS resulting in a DMSO concentration of 2.5%. The control columns were added manually; 40 μl of 2.5% DMSO (Sigma, D4540-100 ml) in growth media was added to the plate for the high control and 40 μl of 50 μM of AMG2203766 with 2.5% DMSO was added to the plate as the low control. The cell plates and diluted compound plates were put onto the VELOCITY1 1™ VPREP™ 384 ST where the compound plate was mixed and 5 μl of serially diluted compound or controls was added to the cell plate. […] The cell plates were then incubated with compound for two hours at 37° Celsius, 5% CO2. After two hours, the media in the cell plates was aspirated using the BioTek® ELx405HT plate washer removing the majority of media and compound without disturbing the adherent U87 cells. The following assay reagents are components of the SureFire Akt (Ser 473) Phosphorylation 50K Point Kit (TGR BioSciences, TGRAS50K) and an IgG Detection Kit (PerkinElmer, 6760617R). […] The plates were then incubated at room temperature on a shaker for ten minutes. The AlphaScreen reaction was prepared under low light conditions (subdued or green light) including p-Akt (Ser 473) Reaction Buffer, Dilution Buffer, Activation Buffer, Acceptor Beads and Donor Beads at a ratio of 40:20:10:1:1 respectively. The AlphaScreen reaction was added to the cell lysate at 6 μl per well using the PerkinElmer® FlexDrop PLUS. The plates were placed in a humid environment to reduce edge effects and incubated overnight at room temperature with restricted air flow in the dark.
On the final day of the experiment, the plates were read on the PerkinElmer® EnVision™ 2103 Multilable Reader using the standard AlphaScreen readout. The POC is calculated and the data is analyzed to report the IC50 IP for pAkt at Serine 473.

mTOR = target: T1, mTOR (Homo sapiens, UniProt P42345); assay: mTOR LanthaScreen (TR-FRET, phosphorylation of 4EBP1); assay type: biochemical; settings: read-out: AA11016+++mTor_MA_IC50_IP
T1 construct: 2.5 μl of 0.6 μg/ml of mTOR Enzyme (Amgen) was added to rows 1-23
Description: The mTOR LanthaScreen is a TR-FRET assay measuring the phosphorylation of mTOR's substrate 4EBP1. 384 well compound plates were prepared containing 1 μl of compound per well starting at 5 mM and diluted 1:2 across the row, resulting in a 22 well serial dilution.
The assay was conducted on the PerkinElmer® FlexDrop PLUS. A 5 μl mix of 800 nM GFP-4E-BP1 (Invitrogen, PV4759) and 20 μM ATP (Amgen) was added to rows 1-24. 2.5 μl of 0.6 μg/ml of mTOR Enzyme (Amgen) was added to rows 1-23. 2.5 μl of assay buffer was added to row 24 for the low control. […] The final concentrations in the assay reagents were 400 nM GFP-4E-BP1, 10 μM of ATP and 0.15 μg/ml of mTOR enzyme. The compound, enzyme, and substrate incubate for 90 minutes.

[2] = U87 MG cells, two hours with compound
[3] = Homo sapiens, U-87 MG, 2 h, U87 MG cells, two hours with compound

Sequence of PI3Ka (P42336 whole entry): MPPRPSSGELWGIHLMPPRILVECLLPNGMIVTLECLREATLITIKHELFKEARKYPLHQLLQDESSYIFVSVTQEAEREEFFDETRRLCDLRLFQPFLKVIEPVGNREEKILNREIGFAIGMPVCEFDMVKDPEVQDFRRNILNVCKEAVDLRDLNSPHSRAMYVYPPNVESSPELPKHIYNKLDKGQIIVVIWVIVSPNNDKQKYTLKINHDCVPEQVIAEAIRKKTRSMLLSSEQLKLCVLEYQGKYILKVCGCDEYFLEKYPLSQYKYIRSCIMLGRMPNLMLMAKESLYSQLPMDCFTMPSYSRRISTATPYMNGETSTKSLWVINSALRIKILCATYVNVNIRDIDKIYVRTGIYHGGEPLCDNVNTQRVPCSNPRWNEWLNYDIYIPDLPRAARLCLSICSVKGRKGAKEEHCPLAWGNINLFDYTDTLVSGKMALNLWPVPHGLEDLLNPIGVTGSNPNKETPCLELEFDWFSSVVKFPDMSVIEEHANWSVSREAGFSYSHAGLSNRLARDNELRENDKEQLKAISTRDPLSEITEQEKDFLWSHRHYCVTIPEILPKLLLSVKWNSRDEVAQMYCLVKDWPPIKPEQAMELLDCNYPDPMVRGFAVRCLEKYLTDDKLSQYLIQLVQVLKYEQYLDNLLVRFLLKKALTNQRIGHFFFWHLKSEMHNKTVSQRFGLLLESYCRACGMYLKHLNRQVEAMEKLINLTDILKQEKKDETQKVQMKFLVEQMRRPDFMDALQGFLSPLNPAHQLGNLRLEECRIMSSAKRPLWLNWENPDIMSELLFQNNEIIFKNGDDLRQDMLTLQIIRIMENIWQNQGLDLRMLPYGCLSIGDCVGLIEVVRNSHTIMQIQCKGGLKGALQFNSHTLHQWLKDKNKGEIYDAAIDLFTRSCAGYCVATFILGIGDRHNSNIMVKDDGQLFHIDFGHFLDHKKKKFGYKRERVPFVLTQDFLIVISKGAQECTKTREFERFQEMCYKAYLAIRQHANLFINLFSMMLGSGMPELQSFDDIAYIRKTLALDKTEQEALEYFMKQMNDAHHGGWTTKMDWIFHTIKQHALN
Sequence of PI3Ka (P27986 whole entry partner): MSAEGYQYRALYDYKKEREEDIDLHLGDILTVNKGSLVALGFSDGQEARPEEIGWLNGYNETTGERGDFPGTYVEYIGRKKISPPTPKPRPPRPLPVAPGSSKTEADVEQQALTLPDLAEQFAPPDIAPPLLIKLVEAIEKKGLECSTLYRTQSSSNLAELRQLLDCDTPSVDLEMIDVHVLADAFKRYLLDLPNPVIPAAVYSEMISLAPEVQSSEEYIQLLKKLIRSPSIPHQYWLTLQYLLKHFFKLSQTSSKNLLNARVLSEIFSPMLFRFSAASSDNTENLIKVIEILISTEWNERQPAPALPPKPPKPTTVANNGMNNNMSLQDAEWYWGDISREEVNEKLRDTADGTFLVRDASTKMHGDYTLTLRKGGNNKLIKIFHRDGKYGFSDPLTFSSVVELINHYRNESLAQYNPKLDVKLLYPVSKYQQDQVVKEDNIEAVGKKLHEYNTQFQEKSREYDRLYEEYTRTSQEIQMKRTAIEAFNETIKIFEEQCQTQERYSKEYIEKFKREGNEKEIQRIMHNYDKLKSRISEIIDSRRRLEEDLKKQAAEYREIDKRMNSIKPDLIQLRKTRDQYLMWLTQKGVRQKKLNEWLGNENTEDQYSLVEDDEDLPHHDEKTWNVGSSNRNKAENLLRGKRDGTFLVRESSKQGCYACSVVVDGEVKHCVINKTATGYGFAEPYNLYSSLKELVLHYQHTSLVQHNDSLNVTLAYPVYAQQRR

Molecule | AA12047+++PI3Ka Alpha IC50 IP (PI3Ka) | IC50 [1, 2] | IC50 (mTOR) | IC50 ([1]; Homo sapiens, U-87 MG, 2 h) | IC50 [1, 3]
1-(4-((1-(4-amino-6-methyl-1,3,5-triazin-2-yl)-1H-benzimidazol-2-yl)amino)phenyl)-3-(3,5-dichlorophenyl)thiourea [Cpd 108] | 470 nM | 1070 nM | 2290 nM | – | –
1-(4-((cyclopropylmethyl)amino)-6-methyl-1,3,5-triazin-2-yl)-N-1H-pyrazol-3-yl-1H-benzimidazol-2-amine [Cpd 170] | 1370 nM | 1680 nM | 1170 nM | – | –
1-(4-amino-6-methyl-1,3,5-triazin-2-yl)-N-1H-pyrazol-5-yl-5-(4-pyridinyl)-1H-benzimidazol-2-amine [Cpd 144] | 7260 nM | 125 nM | 66.6 nM | – | –
1-(4-amino-6-methyl-1,3,5-triazin-2-yl)-N-(1-(4-morpholinylcarbonyl)-1H-pyrazol-4-yl)-1H-benzimidazol-2-amine [Cpd 198] | 2550 nM | – | – | – | –
1-(4-amino-6-methyl-1,3,5-triazin-2-yl)-N-(6-methoxy-3-pyridinyl)-1H-benzimidazol-2-amine [Cpd 151] | 4550 nM | 88.9 nM | 124 nM | – | –
1-(4-amino-6-methyl-1,3,5-triazin-2-yl)-N-cyclopropyl-1H-benzimidazol-2-amine [Cpd 61] | 3830 nM | 1040 nM | 10800 nM | – | –
1-(4-methyl-6-((2-(4-morpholinyl)ethyl)amino)-1,3,5-triazin-2-yl)-N-1H-pyrazol-3-yl-1H-benzimidazol-2-amine [Cpd 156] | 14.6 nM | 54.7 nM | 183 nM | – | –
3-((4-methyl-6-(2-(1H-pyrazol-3-ylamino)-1H-benzimidazol-1-yl)-1,3,5-triazin-2-yl)amino)propanenitrile [Cpd 141] | – | 203 nM | – | – | –
4-((1-(4-amino-6-methyl-1,3,5-triazin-2-yl)-1H-benzimidazol-2-yl)amino)-N-4-pyridinylbenzamide [Cpd 157] | 31800 nM | 767 nM | 194 nM | – | –
Cc1nc(N)nc(-n2c(Nc3cc(O)cc(O)c3)nc3ccccc32)n1 [Cpd 1, 5-((1-(4-amino-6-methyl-1,3,5-triazin-2-yl)-1H-benzimidazol-2-yl)amino)-1,3-benzenediol] | 0.646 nM | – | 0.269 nM | 4.96 nM | –
Cc1nc(N)nc(-n2c(Nc3cccc(O)c3)nc3ccc(C(=O)O)cc32)n1 [Cpd 2, 1-(4-amino-6-methyl-1,3,5-triazin-2-yl)-2-((3-hydroxyphenyl)amino)-1H-benzimidazole-6-carboxylic acid] | – | – | 1.38 nM | – | 224 nM
Cc1nc(N)nc(-n2c(Nc3ccn[nH]3)nc3cc(F)c(F)cc32)n1 [Cpd 9, 1-(4-amino-6-methyl-1,3,5-triazin-2-yl)-5,6-difluoro-N-1H-pyrazol-5-yl-1H-benzimidazol-2-amine] | 485 nM | – | 24.3 nM | 44.6 nM | –
CNC(=O)Nc1ccc(Nc2nc3ccccc3n2-c2nc(C)nc(NCC#N)n2)cc1 [Cpd 111] | 52.8 nM | – | 0.765 nM | – | 69.9 nM
Cc1nc(N)nc(-n2c(Nc3ccc(NC(=O)Nc4ccncc4)cc3)nc3ccccc32)n1 [Cpd 115] | 7.31 nM | – | 4.4 nM | – | 132 nM
CNc1nc(C)nc(-n2c(Nc3cc[nH]n3)nc3cc(C)c(C)cc32)n1 [Cpd 138] | 1390 nM | – | 38.7 nM | – | 158 nM
Cc1nc(N)nc(-n2c(Nc3cnn(C(=O)N4CCOCC4)c3)nc3ccccc32)n1 [Cpd 201] | 3520 nM | – | – | – | 652 nM
